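Cultured in 96-well plates, cells were exposed to test compound for 48 hours across five concentrations. Abbreviation: GI50, concentration required for 50% inhibition of growth. Definition used: TGI = concentration required for complete inhibition of growth.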 Where only a bound is given, the exact number is not on record here.

Test in all cases: NCI anticancer screen, dose series, 48 h
In assay [1] the test system is HS 578T breast.
Assay [2] deals with PC-3 prostate.
In assay [3] the test system is BT-549 breast.
Assay [4] deals with NCI/ADR-RES ovarian.
Assay [5] concerns MCF7 breast.

In the case of `COc1cc([N+](=O)[O-])c2ncccc2c1[N+](=O)[O-]`, the GI50 in assay [1] was 3.87 µM; in assay [2] it was 4.18 µM; in assay [3] it was 7.62 µM; in assay [4], 2.8 µM; in assay [5] it was 3.26 µM. In addition, the TGI in assay [1] came out at 29.4 µM; in assay [2], 17 µM; in assay [3] it was 20.2 µM; in assay [4], 10.8 µM; in assay [5] it was 32.1 µM.
Take `N=C1C=C(N)C(=O)c2[nH]c(=O)ccc21`: the TGI in assay [1] was > 100 µM; in assay [2], 2.8 µM; in assay [4] it was 4.86 µM; in assay [5], 1.78 µM.
On to `Nc1[nH]c(=O)ncc1CO`, for which the GI50 in assay [1], in assay [2], in assay [3] and in assay [5] was > 100 µM each time. Further, the TGI in assay [1], in assay [2], in assay [3] and in assay [5] was > 100 µM in each case.
With `COc1ccc(C(O)CC(O)(C(F)(F)F)C(F)(F)F)cc1` (configuration not stated), the TGI is 61.7 µM in assay [1], 55.7 µM in assay [2], 59.7 µM in assay [4] and > 100 µM in assay [5].
With `Cc1nc(N)nc2ccccc12`, the TGI in assay [1], in assay [2], in assay [3], in assay [4] and in assay [5] was > 100 µM each time.
As for `CC(NC(=O)c1ccccc1)(C(=O)O)C(=O)O`, the TGI in assay [1], in assay [2], in assay [3], in assay [4] and in assay [5] was > 100 µM each time.
`CC(=O)Oc1ccc(/C=N/NC(N)=S)nc1`: the GI50 in assay [2] was 5.28 µM; in assay [3], 3.4 µM; in assay [4], 3.48 µM; in assay [5], 2.13 µM. Besides, the TGI in assay [2] is > 100 µM; in assay [3], 68.9 µM; in assay [4], > 100 µM; in assay [5], > 100 µM.
In the case of `CC1CCC2N(C1)CC1C3(O)CC45OC6(O)C(O)CCC4(C)C6CCC5C3(O)CC(O)C1(O)C2(C)O` (configuration not stated), the TGI in assay [1], in assay [2], in assay [3], in assay [4] and in assay [5] was > 100 µM throughout.
For `O=c1c2ccccc2oc2ccc(OCCCCCCN3CCCCCC3)cc12`, the GI50 in assay [1] is 7.5 µM; in assay [2], 3.17 µM; in assay [3], 1.7 µM; in assay [4], 3.73 µM; in assay [5], 1.91 µM. Also, the TGI in assay [1] is 36.7 µM; in assay [2] it was 13.2 µM; in assay [3], 5.3 µM; in assay [4], 24.6 µM; in assay [5], 5.53 µM.
`CCOc1cc(-c2ccc[nH]2)[nH]c1/C=C1\N=C(C)C(C(=O)OC)=C1C`: the GI50 was 0.0475 µM in assay [1]; 0.0357 µM in assay [2]; 0.0451 µM in assay [3]; 0.0432 µM in assay [4]; 0.0369 µM in assay [5]. The TGI is 0.58 µM in assay [1]; 2.13 µM in assay [2]; 1.92 µM in assay [3]; 1.47 µM in assay [4]; 0.467 µM in assay [5].
As for `CCN(CC)CCN(C(=O)C(C)(C)C)c1ccccc1N`, the TGI in assay [2], in assay [3], in assay [4] and in assay [5] was > 100 µM each time.
As for `COc1cnc2cc(C(=O)O)c3ccccc3c2c1`, the TGI in assay [1], in assay [2], in assay [4] and in assay [5] was > 100 µM throughout.
For `CC1(C)CC[C@]2(C(N)=O)CC[C@]3(C)C(=CC[C@@H]4[C@@]5(C)C/C(=C/c6ccncc6)C(=O)C(C)(C)[C@@H]5CC[C@]43C)[C@@H]2C1`, the GI50 is 3.07 µM in assay [1], 1.37 µM in assay [2], 2.42 µM in assay [4] and 2.52 µM in assay [5]. The TGI in assay [1] was > 100 µM; in assay [2] it was 3.51 µM; in assay [4] it was 6.99 µM; in assay [5] it was 10.5 µM.
As to `COC1(OC)c2no[n+]([O-])c2C(OC)(OC)c2c1no[n+]2[O-]`, the TGI in assay [1] was 97.7 µM; in assay [2], 66.6 µM; in assay [4], 62.8 µM; in assay [5] it was 42.7 µM.
`CC1OC(OC2CCC3(C=O)C4CCC5(C)C(C6=CC(=O)OC6)CCC5(O)C4CCC3(O)C2)C(O)C(O)C1O` (configuration not stated): the TGI was > 100 µM in assay [1], 0.0025 µM in assay [2], 4.44e-05 µM in assay [3] and 6.17e-05 µM in assay [4].
On to `Oc1ccc(Cl)cc1Cc1cc(Cl)ccc1O`, for which the GI50 in assay [1] was 1.91 µM; in assay [2] it was 3.17 µM; in assay [3], 2.6 µM; in assay [4], 2.19 µM; in assay [5], 2.97 µM. For the same compound, the TGI in assay [1] stood at 7.35 µM; in assay [2], 11.6 µM; in assay [3] it was 8.76 µM; in assay [4] it was 6.32 µM; in assay [5] it was 10.2 µM.
On to `O=c1[nH]c2ccccc2n1-c1n[nH]c2ccccc12`, for which the GI50 was 23 µM in assay [1]; 18.1 µM in assay [2]; 30.5 µM in assay [3]; 30.3 µM in assay [4]; 20.1 µM in assay [5]. Also, the TGI in assay [1], in assay [2], in assay [3], in assay [4] and in assay [5] was > 100 µM throughout.
For the compound `COc1cccc(C2NC(=S)NC(C)=C2C(=O)Nc2ccc(Cl)c(Cl)c2)c1` (configuration not stated), the GI50 in assay [1] was 10.7 µM; in assay [2] it was 14.3 µM; in assay [3], 7.15 µM; in assay [4], > 50 µM. The TGI in assay [1] was 28.8 µM; in assay [2], > 50 µM; in assay [3], 16.8 µM; in assay [4], > 50 µM.
On to `C/C=C1\C(=O)OC2CCN3CCC(COC(=O)C(C)(O)C(C)C1O)C23` (configuration not stated), for which the TGI in assay [1], in assay [2], in assay [3], in assay [4] and in assay [5] was > 100 µM each time.
As to `CC1=C(C(=O)Nc2ccc(Cl)c(Cl)c2)C(c2ccccc2O)NC(=O)N1` (configuration not stated), the GI50 was 32.2 µM in assay [1], 33.7 µM in assay [2], 15.3 µM in assay [3] and > 50 µM in assay [4]. The TGI in assay [1], in assay [2], in assay [3] and in assay [4] was > 50 µM throughout.
Consider `O=C(Nc1ccccc1C(=O)N/N=C(\c1ccccc1)c1ccccn1)c1ccc(F)cc1`, for which the GI50 was 6.48 µM in assay [1]; 0.792 µM in assay [2]; 0.436 µM in assay [3]; 0.105 µM in assay [4]; 0.308 µM in assay [5]. Besides, the TGI is > 100 µM in assay [1]; > 100 µM in assay [2]; > 26.7 µM in assay [3]; > 19.7 µM in assay [4]; > 100 µM in assay [5].
Regarding `Cc1cc(Cl)ccc1NS(=O)(=O)c1ccc(-c2cnc(C3CC3)o2)cc1`, the GI50 in assay [1] was 0.275 µM; in assay [2], 0.254 µM; in assay [3], 1.32 µM; in assay [4], 0.178 µM; in assay [5] it was 0.0619 µM. Besides, the TGI in assay [1] was found to be 22.2 µM; in assay [2], 13.8 µM; in assay [3], 15.5 µM; in assay [4] it was 13 µM; in assay [5] it was 14.7 µM.
With `CC(=O)Oc1ccc2c(c1)CC[C@@H]1C2CC[C@]2(C)C(=O)NC(=O)CC12` (some centres not stated), the TGI in assay [1], in assay [2], in assay [3] and in assay [5] was > 100 µM each time.
In the case of `CC1CC2(C)CC(=O)C1C1C(=O)N(CCN3CCCCC3)C(=O)C12` (configuration not stated), the GI50 in assay [1], in assay [2], in assay [3] and in assay [4] was > 100 µM throughout. Moreover, the TGI in assay [1], in assay [2], in assay [3] and in assay [4] was > 100 µM in each case.
As to `CSc1ccc(C(=O)C(=O)c2ccc(SC)s2)s1`, the TGI in assay [1], in assay [2], in assay [4] and in assay [5] was > 10 µM each time.
Turning to `CC(=O)OC1CC2C(=O)C(=O)C1(C)C2(C)C` (configuration not stated), the TGI in assay [2], in assay [3], in assay [4] and in assay [5] was > 100 µM each time.
Regarding `O=C(Cc1ccccc1)NN1C(=O)/C(=C\c2ccc(O)cc2)SC1=Nc1ccccc1`, the TGI in assay [1], in assay [3], in assay [4] and in assay [5] was > 100 µM each time.
In the case of `C#CCN(Cc1ccc2nc(N)[nH]c(=O)c2c1)c1ccc(C(=O)NC(CCC(=O)O)C(=O)O)cc1` (configuration not stated), the TGI in assay [2], in assay [3], in assay [4] and in assay [5] was > 100 µM in each case.

The values above are taken from PubChem BioAssay (NCI).
